Reference: doi:10.1101/2024.08.19.608619, “Discovery of potent SARS-CoV-2 nsp3 macrodomain inhibitors uncovers lack of translation to cellular antiviral response” (bioRxiv, 2024)
≈ marks a conversion by molar mass, not a printed value. Where “and” joins values, the source holds several entries; their conditions need not be identical. Equal entries are not always repeated. Where two headings read alike, the source gives them in different places.

Legend:
[1] = test system: SARS-CoV-2, isolate USA-WA1/2020; experiment: microbe, parasite or virus in culture; assay type: cell-based; conditions: HeLa-ACE2 SARS-CoV-2 antiviral effect without P-gp inhibitor; for perc_max_measured: maximum measured response of dose series; for perc_min_measured: minimum measured response of dose series; for EC50: read-out: ec50; for EC90: read-out: ec90
HeLa-ACE2 cells = conditions: for perc_max_measured: highest measured response of the dose series; for perc_min_measured: lowest measured response of the dose series
in vitro = conditions: human, hela-ace2 cells, 50.0
[2] = Permeability Papp (AB) MDR1/MDCKII; conditions: for papp_a_to_b_mean / perc_recovery_a_to_b_mean / papp_b_to_a_mean / efflux_ratio / perc_recovery_b_to_a_mean: In vitro MDR1-MDCKII permeability; for papp_a_to_b_mean: A to B; for perc_recovery_a_to_b_mean / perc_recovery_a_to_b_inhibitor_mean: recovery A to B; for perc_recovery_b_to_a_mean / perc_recovery_b_to_a_inhibitor_mean: recovery B to A
[3] = In vitro kinetic solubility; conditions: In vitro kinetic solubility, ph 7.4
LogD = conditions: pH 7.4; In vitro LogD
[4] = Hepatic microsomal stability, MLM; assay type: in vitro ADME
[5] = Hepatic microsomal stability, HLM; assay type: in vitro ADME, human; conditions: In vitro human liver microsomal stability; for perc_remaining_no_cofactor: no cofactor
[6] = In vitro mouse liver microsomal stability
[7] = MDR1-MDCKII, with inhibitor Cyclosporin A
[8] = MDR1-MDCKII, with inhibitor Verapamil
[9] = In vitro mouse liver microsomal stability, no cofactor
[10] = protocol HeLa-ACE2 cytotoxicity

SMILES | perc_max_measured [1] [%] | perc_min_measured [1] [%] | EC50 [1] [µM] | EC90 [1] [µM] | CC50 (HeLa-ACE2 cells; HeLa-ACE2 cytotoxicity) [µM] | cc10 (HeLa-ACE2 cells; HeLa-ACE2 cytotoxicity) [µM] | perc_max_measured (HeLa-ACE2 cells; HeLa-ACE2 cytotoxicity) [%] | perc_min_measured (HeLa-ACE2 cells; HeLa-ACE2 cytotoxicity) [%] | CC50 at 24 h (in vitro) [µM] | papp_a_to_b_mean ([2]; mean) [×10⁻⁶ cm/s] | solubility_mean [3] [µM] | logd (LogD) | clint [4, 6] [µL/min/mg] | perc_remaining [4, 6] [%] | t_half [4, 6] [min] | clint [5] [µL/min/mg] | perc_remaining [5] [%] | t_half [5] [min] | perc_remaining_no_cofactor [5] [%] | perc_remaining_no_cofactor [4, 9] [%] | further results
CC(C)[C@@H](Nc1ncnc2[nH]c(-c3cnn(CC(=O)N(C)C)c3)cc12)c1ccc2c(c1)S(=O)(=O)CCC2 (racemic) [ASAP-0008668] | 98.615 | 84.991 | > 20 | > 20 | > 20 | > 20.0 | 99.837 | 68.704 | > 20 | 0.67 | 38 (≈ 19.8 µg/mL) | 2.1 | 68.0 | 31.0 | 24.6 | 106.0 | 18.0 | 15.8 | 92.0 | – | perc_recovery_a_to_b_mean ([2]; mean): 85.0%; perc_remaining_no_cofactor ([4]; In vitro mouse liver microsomal stability; no cofactor): 92.0%
CCNC(=O)c1cc2c(N[C@@H](c3ccc4c(c3)S(=O)(=O)CCO4)C(C)C)ncnc2[nH]1 (racemic) [ASAP-0012317] | 111.753 | 79.377 | > 20 | > 20 | > 20 | > 20.0 | 105.961 | 74.573 | > 20 | – | 328 (≈ 145 µg/mL) | 2.9 | 26.0 | 66.0 | 65.5 | 64.0 | 33.0 | 26.2 | 95.0 | 99.0 | papp_b_to_a_mean ([2]; B to A, no inhibitor): 1.5 ×10⁻⁶ cm/s and 1.4 ×10⁻⁶ cm/s; efflux_ratio ([2]; no inhibitor): 20.3 and 15.3; perc_recovery_a_to_b_mean ([2]; no inhibitor): 71.9% and 74.3% and 65.2%; perc_recovery_b_to_a_mean ([2]; no inhibitor): 68.3% and 88.2%; papp_b_to_a_inhibitor_mean ([2]; MDR1-MDCKII, B to A, with inhibitor Verapamil): 1.5 ×10⁻⁶ cm/s; perc_recovery_a_to_b_inhibitor_mean [2, 7]: 82.7%; perc_recovery_a_to_b_inhibitor_mean [2, 8]: 92.9%; perc_recovery_b_to_a_inhibitor_mean [2, 7]: 89.0%; perc_recovery_b_to_a_inhibitor_mean [2, 8]: 90.3%
CC(C)[C@@H](Nc1ncnc2[nH]ccc12)c1ccc2c(c1)S(=O)(=O)CCC2 (single isomer, unassigned) [ASAP-0008676] | 117.108 | 66.698 | > 20 | > 20 | > 20 | > 20.0 | 101.14 | 87.391 | > 20 | – | 386 (≈ 143 µg/mL) | 2.5 | 55.0 | 41.0 | 30.4 | 21.0 | 69.0 | 78.6 | 99.0 | 117.0 | papp_b_to_a_mean ([2]; B to A, no inhibitor): 7.1 ×10⁻⁶ cm/s and 4.9 ×10⁻⁶ cm/s; efflux_ratio ([2]; no inhibitor): 47.7 and 54.4; perc_recovery_a_to_b_mean ([2]; no inhibitor): 75.4% and 74.2% and 91.3%; perc_recovery_b_to_a_mean ([2]; no inhibitor): 80.0% and 74.5%; perc_recovery_a_to_b_inhibitor_mean [2, 7]: 72.2%; perc_recovery_a_to_b_inhibitor_mean [2, 8]: 82.4%; perc_recovery_b_to_a_inhibitor_mean [2, 7]: 63.3%; perc_recovery_b_to_a_inhibitor_mean [2, 8]: 89.1%
Cc1nn(C)cc1-c1cc2c(N[C@H](c3ccc4c(c3)S(=O)(=O)CCC4)C(C)C)ncnc2[nH]1 (single isomer, unassigned) [ASAP-0011448] | 131.643 | 93.649 | > 20 | > 20 | – | – | – | – | – | 3.69 | 63 (≈ 29.3 µg/mL) | 3.4 | 390.0 | 1.0 | 4.3 | 251.0 | 2.0 | 6.6 | 116.0 | 103.0 | CC50 (HeLa-ACE2 cells; [10]): > 20 µM; cc10 (HeLa-ACE2 cells; [10]): > 20.0 µM; perc_max_measured (HeLa-ACE2 cells; [10]): 94.816%; perc_min_measured (HeLa-ACE2 cells; [10]): 77.647%; perc_recovery_a_to_b_mean ([2]; mean): 77.9%
